Reference: paper PMC7504360 (International Journal of Molecular Sciences, 2020)
Square brackets hold non-standard residues; d marks the D form. Peptide text beside a SMILES is read from it.

Tests used:
[1] = system: sheep red blood cells (sRBCs); assay: Hemolytic activity; assay type: cell-based; conditions: 100 μM peptide, 4% (v/v) sRBCs in PBS, 1 h at 37 °C, absorbance 405 nm; three measurements averaged
Experimental: The hemolytic activity of all Pro-peptides were tested against sheep red blood cells (sRBCs) as described in previous reports. Fresh sRBCs were washed three times with phosphate-buffered saline (PBS) followed by centrifugation for 5 min at 2500 rpm at 4 °C. Peptides (0.2 to 100 μM) in PBS were incubated with 4% (v/v) sRBCs for 1 h at 37 °C. The contents were then centrifuged for 5 min at 1000 × g. The absorbance of the supernatant at 405 nm was used as a measure of hemolysis, and three times independent measurements were averaged. As a control, 100% hemolysis was obtained by treating sRBCs with melittin.

[2] = LPS neutralization, limulus amebocyte lysate (LAL) assay; assay type: biochemical, Escherichia coli O111:B4; conditions: 50 μM peptide, 20 ng/mL LPS, 30 min at 37 °C, LAL chromogenic kit, 405 nm; triplicate
Experimental: The LPS-neutralizing activity of all peptides was determined using the Pierce LAL chromogenic endotoxin quantitation kit (ThermoFisher Scientific, MA, USA). All peptides including standard (Polymixin B) at varying concentrations (3.12, 6.25, 12.5, 25, and 50 μM in endotoxin-free water) were allowed to bind with 20 ng/mL of LPS in a 96-well plate for 30 min at 37 °C. To this, an equal volume (10 μL) of LAL reagent was added and incubated for 10 min at 37 °C and then 20μL of LAL chromogenic substrate was added. After 15 min incubation at 37 °C, the reaction was stopped by 25% acetic acid and the reduction in yellow color formation due to the substrate was measured at 405 nm on an absorbance microplate reader. The experiment was conducted in triplicate, and the changes in absorbance due to peptide-LPS interaction are indicated as percent LPS neutralization.

Calcein leakage assay = conditions: 4 µM peptide, 3 min after peptide exposure, EYPE/EYPG (7:3, w/w) LUVs, pH 7.4, fluorescence ex 490/em 520 nm; triplicate
Experimental: We investigated the modes of action of the peptides by measuring their abilities to permeate model phospholipid membranes and Escherichia coli. The membrane-permeabilizing ability of the peptides was measured by monitoring the release of fluorescent calcein from liposomes of various compositions. We employed negatively-charged large unilamellar vesicles (LUVs) composed of 7:3 (w/w) egg yolk L-α-phosphatidylethanolamine (EYPE)/egg yolk L-α-phosphatidylglycerol (EYPG) to mimic gram-negative bacterial cells. The percentage of calcein leakage 3 min after peptide exposure was used to assess its ability to permeate the membrane. […] All Pro-peptides induced significant dye release against the negatively charged EYPE/EYPG LUVs, implying that they potently permeate bacterial cell component membranes. […]
Calcein-entrapped LUVs composed of egg yolk phosphatidylethanolamine (EYPE)/egg yolk phosphatidylglycerol EYPG (7:3, w/w) were prepared by vortexing the dried lipid in dye buffer solution (70 mM calcein, 10 mM Tris, 150 mM NaCl, and 0.1 mM Ethylenediaminetetraacetic acid (EDTA), pH 7.4) as described previously. The leakage of calcein from the LUVs was monitored by measuring fluorescence intensity at an excitation wavelength of 490 nm and an emission wavelength of 520 nm on a model RF-5301PC spectrophotometer (Shimadzu, Kyoto, Japan). […]

all bacterial strains = assay: Mean MIC over all bacterial strains (GM); assay type: cell-based; conditions: mean MIC of all bacterial strains of Table 2
Experimental: Briefly, the microplates were inoculated with two-fold serial dilutions of each peptides in Mueller–Hinton (MH) media and then seeded with log-phase culture of aforementioned bacterial suspensions (2 × 10^5 CFU/mL). The microplates were incubated for 16 h at 37 °C, and absorbance was read at 600 nm using microplate reader SpectraMAX (Molecular Devices, San Jose, CA, USA).

ICR mice = assay: Cytotoxicity in vivo (serum AST, ALT, BUN); design: species or system mouse; conditions: single intraperitoneal dose 1 mg/kg and 5 mg/kg, 24 h, 5 mice/group
Experimental: A preliminary toxicity study was conducted to determine the cytotoxic effect of Pro10-1 and Pro10-1D on ICR mice. Four-week-old mice (n = 5) were injected intraperitoneally with peptides (1 mg/Kg and 5 mg/Kg, respectively) for 24 h. After treatment, blood was withdrawn and serum was collected and then subjected to AST, ALT, and BUN analyses.

TLR4 = assay: Immunoblot of TLR4 expression; assay type: cell-based, mouse; conditions: 20 μM peptide, LPS 50 ng/mL, RAW264.7 cells
Experimental: The protein content of all experimental groups of RAW264.7 cells in triplicate were extracted using radio immunoprecipitation buffer (RIPA) containing protease phosphatase inhibitor. The supernatant was collected by centrifugation (12,000× g) at 4 °C for 20 min and stored at −80 °C until further use. Similarly, cytoplasmic and nuclear fractionation was extracted using an NE-PER Nuclear and Cytoplasmic Extraction Reagents kit (ThermoFisher Scientific, MA, USA), according to the manufacturer’s protocol. Protein contents were quantified using a bicinchoninic acid (BCA) protein assay kit (Thermo Fisher Scientific Inc., MA, USA) and 30 μg (v/v) was electrophoresed by SDS-PAGE using a 10% (w/v) polyacrylamide resolving gel, electro-transferred to a PVDF membrane, and then blocked using 5% (w/v) non-fat milk. The membranes were incubated with primary antibodies (1:1000 dilution) at 4 °C overnight, followed by incubation with their respective secondary antibody for 1 h at room temperature. The antigen-antibody complexes were examined using the WestGlow^TM Chemiluminescent Substrate (Biomax Co., Ltd, Seoul, South Korea) under iBright™ CL1000 Imaging System (Thermo Fisher Scientific Inc., MA, USA). The densitometric analysis of protein signals were quantified using the Image J software (Version 1.52, National Institutes of Health, MD, USA).

For `CC[C@@H](C)[C@@H](NC(=O)[C@@H](C)NC(=O)[C@@H](CC(C)C)NC(=O)[C@@H](Cc1c[nH]c2ccccc12)NC(=O)[C@@H](CC(C)C)NC(=O)[C@@H](CCCNC(=N)N)NC(=O)[C@H](N)CCCNC(=N)N)C(=O)N[C@H](Cc1c[nH]c2ccccc12)C(=O)N[C@H](CCCNC(=N)N)C(=O)N[C@H](CCCNC(=N)N)C(N)=O` [Pro10-1D] (H-[dR][dR][dL][dW][dL][dA][dI][dW][dR][dR]-NH2; N-terminus assumed), the hemolysis [1] was “no hemolytic activity”, the “inhibition of the activation of LPS (LPS neutralization)” value [2] was 58.45% and the calcein leakage (Calcein leakage assay) was “more than 80%”. For the same compound, the “GM (geometric mean of MIC values of all bacterial strains)” value (all bacterial strains) was 4.86 µM, the “AST, ALT, and BUN elevation in serum” value (ICR mice) was “did not observe any clinical significance” and the “LPS-induced TLR4 expression” value (TLR4) was “effectively suppressed”.
